Results published in BigSolDB 2.1.

NC(=O)OCCCc1ccccc1
solubility (mole fraction)
Conditions | 283.15 K | 288.15 K | 293.15 K | 298.15 K | 303.15 K | 308.15 K | 313.15 K | 318.15 K | 323.15 K
in 2-butanone | 0.0601 | 0.0718 | 0.0829 | 0.0993 | 0.117 | 0.131 | 0.147 | 0.164 | 0.187
in acetone | 0.0652 | 0.0775 | 0.0939 | 0.107 | 0.12 | 0.137 | 0.158 | 0.179 | 0.202
in ethanol | 0.0156 | 0.0178 | 0.0239 | 0.0307 | 0.0392 | 0.0493 | 0.0623 | 0.0808 | 0.1
in ethyl acetate | 0.0493 | 0.0567 | 0.0687 | 0.0803 | 0.0929 | 0.104 | 0.117 | 0.13 | 0.144
in isopropanol | 0.0108 | 0.0149 | 0.0207 | 0.0261 | 0.0339 | 0.0439 | 0.0587 | 0.0769 | 0.0904
in methanol | 0.0202 | 0.0247 | 0.0321 | 0.0396 | 0.0492 | 0.0614 | 0.0752 | 0.1 | 0.118
in methyl acetate | 0.0494 | 0.059 | 0.0719 | 0.0862 | 0.101 | 0.119 | 0.139 | 0.161 | 0.186
in n-butanol | 0.00704 | 0.012 | 0.0198 | 0.0279 | 0.0391 | 0.0492 | 0.0663 | 0.0824 | 0.0972
in n-pentanol | 0.0174 | 0.02 | 0.0239 | 0.031 | 0.0404 | 0.0523 | 0.0668 | 0.081 | 0.0946
in n-propanol | 0.0127 | 0.0155 | 0.0219 | 0.028 | 0.0349 | 0.045 | 0.0589 | 0.0771 | 0.0989
in sec-butanol | 0.0138 | 0.017 | 0.0226 | 0.0299 | 0.0405 | 0.0515 | 0.0679 | 0.092 | 0.118
in water | 8.1e-06 | 1.5e-05 | 3.19e-05 | 5.99e-05 | 0.000107 | 0.000165 | 0.000229 | 0.000293 | 0.000378
